Source: ChEMBL document CHEMBL4196088, “Induction of cell killing and autophagy by amphiphilic pyrrolidine derivatives on human pancreatic cancer cells” (Eur J Med Chem, 2018)

System: BXPC-3
Experiment: Growth inhibition of human BxPC3 cells after 72 hrs by XTT assay
Assay type: functional, cell-based
Settings: BXPC-3, 72 h

| Compound | IC50 |
| --- | --- |
| CC(C)(C)OC(=O)NCC(=O)N1CCC[C@H]1COCCCCCCCCC/C=C/c1ccc(-c2ccccc2)cc1 | > 100 µM |
| C(=C\c1ccc(Oc2ccccc2)cc1)/CCCCCCCCOC[C@@H]1CCCN1 | 43.3 µM |
| CCCCCCCC/C=C\CCCCCCCCOC[C@@H]1CCCN1C(=O)[C@@H]1CCCN1C(=O)OC(C)(C)C | > 100 µM |
| O=CN1CCC[C@H]1COCCCCCC/C=C/c1ccc(-c2ccccc2)cc1 | 53.3 µM |
| C=CCCCCCCOC[C@@H]1CCCN1[S+]([O-])c1ccc(C)cc1 (some centres undefined) | 50 µM |
| CCCCCCCC/C=C\CCCCCCCCOC[C@@H]1CCCN1C(=O)OC(C)(C)C | > 100 µM |
| C=CCCCCCCCCCOC[C@@H]1CCCN1C(=O)OC(C)(C)C | 50 µM |
| CC(C)(C)OC(=O)N1CCC[C@H]1COCCCCCCCC/C=C/c1ccc(-c2ccccc2)cc1 | 70 µM |

System: MIA PaCa-2
Experiment: Growth inhibition of human MIAPaCa2 cells after 72 hrs by MTT assay
Assay type: functional, cell-based
Settings: MIA PaCa-2, 72 h

| Compound | IC50 |
| --- | --- |
| C(=C\c1ccc(Oc2ccccc2)cc1)/CCCCCCCCOC[C@@H]1CCCN1 | 18.3 µM |
| CCCCCCCC/C=C\CCCCCCCCOC[C@@H]1CCCN1C(=O)OC(C)(C)C | > 100 µM |
| CC(C)(C)OC(=O)N1CCC[C@H]1COCCCCCCCCC/C=C/c1ccc(Oc2ccccc2)cc1 | 59.6 µM |
| C=CCCCCCCCCCOC[C@@H]1CCCN1C(=O)OC(C)(C)C | 50.3 µM |
| CC(C)(C)OC(=O)N1CCC[C@H]1COCCCCCCCC/C=C/c1ccc(-c2ccccc2)cc1 | 69.2 µM |

System: PANC-1
Experiment: Growth inhibition of human PANC1 cells after 72 hrs by XTT assay
Assay type: functional, cell-based
Settings: PANC-1, 72 h

| Compound | IC50 |
| --- | --- |
| CC(C)(C)OC(=O)NCC(=O)N1CCC[C@H]1COCCCCCCCCC/C=C/c1ccc(-c2ccccc2)cc1 | > 100 µM |
| C(=C\c1ccc(Oc2ccccc2)cc1)/CCCCCCCCOC[C@@H]1CCCN1 | 50 µM |
| CCCCCCCC/C=C\CCCCCCCCOC[C@@H]1CCCN1C(=O)[C@@H]1CCCN1C(=O)OC(C)(C)C | > 100 µM |
| O=CN1CCC[C@H]1COCCCCCC/C=C/c1ccc(-c2ccccc2)cc1 | 50 µM |
| Cc1ccc([S+]([O-])N2CCC[C@H]2COCCCCCCCCC/C=C/c2ccc(Oc3ccccc3)cc2)cc1 (some centres undefined) | > 100 µM |
| C=CCCCCCCOC[C@@H]1CCCN1[S+]([O-])c1ccc(C)cc1 (some centres undefined) | 53.3 µM |
| CCCCCCCC/C=C\CCCCCCCCOC[C@@H]1CCCN1C(=O)OC(C)(C)C | 80 µM |
| CC(C)(C)OC(=O)N1CCC[C@H]1COCCCCCCCCC/C=C/c1ccc(Oc2ccccc2)cc1 | > 100 µM |
| C=CCCCCCCCCCOC[C@@H]1CCCN1C(=O)OC(C)(C)C | ≥ 100 µM |
| CC(C)(C)OC(=O)N1CCC[C@H]1COCCCCCCCC/C=C/c1ccc(-c2ccccc2)cc1 | 90 µM |

System: PK9
Experiment: Growth inhibition of human PK9 cells after 72 hrs by MTT assay
Assay type: functional, cell-based
Settings: PK9, 72 h

| Compound | IC50 |
| --- | --- |
| C(=C\c1ccc(Oc2ccccc2)cc1)/CCCCCCCCOC[C@@H]1CCCN1 | 20.8 µM |
| CCCCCCCC/C=C\CCCCCCCCOC[C@@H]1CCCN1C(=O)OC(C)(C)C | > 100 µM |
| CC(C)(C)OC(=O)N1CCC[C@H]1COCCCCCCCCC/C=C/c1ccc(Oc2ccccc2)cc1 | > 100 µM |
| C=CCCCCCCCCCOC[C@@H]1CCCN1C(=O)OC(C)(C)C | > 100 µM |
| CC(C)(C)OC(=O)N1CCC[C@H]1COCCCCCCCC/C=C/c1ccc(-c2ccccc2)cc1 | > 100 µM |

System: HeLa
Experiment: Growth inhibition of human HeLa cells after 72 hrs
Assay type: functional, cell-based
Settings: not given

| Compound | IC50 |
| --- | --- |
| CCCCCCCC/C=C/CCCCCCCCOC[C@@H]1C[C@@H](O)CN1C(=O)OC(C)(C)C | 29.5 µM |
| CC(C)(C)OC(=O)N1C[C@H](O)C[C@H]1COCCCCCCCC/C=C/c1ccc(-c2ccccc2)cc1 | 37.5 µM |
| C=CCCCCCCOC[C@@H]1C[C@@H](O)CN1 | > 100 µM |
| CC(C)(C)OC(=O)N1C[C@H](O)C[C@H]1COCCCCCCCC/C=C/c1ccc(Oc2ccccc2)cc1 | 41 µM |
| C=CCCCCCCCCCOC[C@@H]1C[C@@H](O)CN1 | 39 µM |
| CCCCCCCC/C=C\CCCCCCCCOC[C@@H]1C[C@@H](O)CN1 | 3.9 µM |
| CC(C)(C)OC(=O)N1C[C@H](O)C[C@H]1COCCCCCCCCC/C=C/c1ccc(Oc2ccccc2)cc1 | 45.9 µM |
| CC(C)(C)OC(=O)N1C[C@H](O)C[C@H]1COCCCCCC/C=C/c1ccc(Oc2ccccc2)cc1 | 41 µM |
| CCCCCCCC/C=C\CCCCCCCCOC[C@@H]1C[C@@H](O)CN1C(=O)OC(C)(C)C | 40 µM |
| O[C@H]1CN[C@H](COCCCCCCCC/C=C/c2ccc(-c3ccccc3)cc2)C1 | 3.9 µM |
| CC(C)(C)OC(=O)N1C[C@H](O)C[C@H]1COCCCCCC/C=C/c1ccc(-c2ccccc2)cc1 | 38.5 µM |
| CCCCCCCC/C=C/CCCCCCCCOC[C@@H]1C[C@@H](O)CN1 | 4 µM |
| CC(C)(C)OC(=O)N1C[C@H](O)C[C@H]1COCCCCCCCCC/C=C/c1ccc(-c2ccccc2)cc1 | 36.5 µM |
| C=CCCCCCCCCCOC[C@@H]1C[C@@H](O)CN1C(=O)OC(C)(C)C | 39 µM |
| C=CCCCCCCOC[C@@H]1C[C@@H](O)CN1C(=O)OC(C)(C)C | 23 µM |
| O[C@H]1CN[C@H](COCCCCCC/C=C/c2ccc(Oc3ccccc3)cc2)C1 | 5.1 µM |
